Results published in PubChem BioAssay AID248 (DTP/NCI, 2004).
Several values for one entry are separate records, joined by “and”; a condition that tells them apart may be missing. Equal values may be shown once. Inconclusive results and toxic doses are left out.

System: L1210 leukemia ip in BDF1 mice, survival T/C
Assay: NCI In Vivo Anticancer Drug Screen. Data for tumor model L1210 Leukemia (intraperitoneal) in B6D2F1 (BDF1) mice
Details: endpoint: mean survival time, higher = longer survival
In short: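 Mice bearing the transplanted tumor received compound or vehicle. Survival of the treated group was divided by that of the vehicle-treated control group to give the ratio.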

[1] = dose: 100.0 mg/kg/injection, schedule: Q04DX003 (ip), vehicle: saline
[2] = dose: 200.0 mg/kg/injection, schedule: Q04DX003 (ip), vehicle: saline
[3] = dose: 400.0 mg/kg/injection, schedule: Q04DX003 (ip), vehicle: saline
[4] = dose: 100.0 mg/kg/injection, schedule: Q01DX005 (ip), vehicle: saline
[5] = dose: 200.0 mg/kg/injection, schedule: Q01DX005 (ip), vehicle: saline
[6] = dose: 12.5 mg/kg/injection, schedule: Q04DX003 (ip), vehicle: saline with Tween-80
[7] = dose: 25.0 mg/kg/injection, schedule: Q04DX003 (ip), vehicle: saline with Tween-80
[8] = dose: 100.0 mg/kg/injection, schedule: Q01DX001 (ip), vehicle: saline
[9] = dose: 200.0 mg/kg/injection, schedule: Q01DX001 (ip), vehicle: saline
[10] = dose: 400.0 mg/kg/injection, schedule: Q01DX001 (ip), vehicle: saline
[11] = dose: 100.0 mg/kg/injection, schedule: Q04DX002 (ip), vehicle: saline
[12] = dose: 100.0 mg/kg/injection, schedule: Q01DX001 (ip), vehicle: carboxymethylcellulose (CMC)
[13] = dose: 200.0 mg/kg/injection, schedule: Q01DX001 (ip), vehicle: carboxymethylcellulose (CMC)
[14] = dose: 400.0 mg/kg/injection, schedule: Q01DX001 (ip), vehicle: carboxymethylcellulose (CMC)
[15] = dose: 50.0 mg/kg/injection, schedule: Q01DX009 (ip), vehicle: saline with Tween-80

## CCCNC(=O)/C=C/C(=O)NCCC
[1]
  T/C: 100 % of control
[2]
  T/C: 100 % of control
[3]
  T/C: 100 % of control

## COc1ccc(COC2C(CO)OC(n3ccc(N)nc3=O)C2O)cc1 (configuration not stated)
[4]
  T/C: 100 % of control
[5]
  T/C: 94 % of control

## C1=C(c2ccccc2)N=C(c2ccccc2)C2C(c3ccccc3)N2C1c1ccccc1 (configuration not stated)
dose: 100.0 mg/kg/injection, schedule: Q01DX001 (ip), vehicle: Klucel (hydroxypropylcellulose) (HPC)
  T/C: 87 % of control
dose: 200.0 mg/kg/injection, schedule: Q01DX001 (ip), vehicle: Klucel (hydroxypropylcellulose) (HPC)
  T/C: 91 % of control

## CCCCN1CSC(=S)N(CCCC)C1
dose: 100.0 mg/kg/injection, schedule: Q04DX002 (ip), vehicle: saline with Tween-80
  T/C: 100 % of control
dose: 200.0 mg/kg/injection, schedule: Q04DX002 (ip), vehicle: saline with Tween-80
  T/C: 93 % of control
dose: 400.0 mg/kg/injection, schedule: Q04DX002 (ip), vehicle: saline with Tween-80
  T/C: 105 % of control

## CC1CCCC(C)N1CC(O)c1ccccc1 (configuration not stated)
dose: 6.25 mg/kg/injection, schedule: Q04DX003 (ip), vehicle: saline with Tween-80
  T/C: 94 % of control
[6]
  T/C: 97 % of control
[7]
  T/C: 97 % of control

## ON=C1CCCCCCC1
dose: 12.5 mg/kg/injection, schedule: Q04DX002 (ip), vehicle: Klucel (hydroxypropylcellulose) (HPC)
  T/C: 105 % of control
dose: 25.0 mg/kg/injection, schedule: Q04DX002 (ip), vehicle: Klucel (hydroxypropylcellulose) (HPC)
  T/C: 96 % of control
dose: 50.0 mg/kg/injection, schedule: Q04DX002 (ip), vehicle: Klucel (hydroxypropylcellulose) (HPC)
  T/C: 101 % of control

## Cc1cc(O)c2c(c1O)C(=O)C13C(=C2O)C(=O)C2C(O)C1C1C(O)C3C(=O)C3=C(O)c4c(O)cc(C)c(O)c4C(=O)C321 (configuration not stated)
[6]
  T/C: 93 % of control
[7]
  T/C: 106 % of control

## CN(C=O)c1ccc(C(=O)N(C(=O)NC2CCCCC2)C2CCCCC2)cc1
[8]
  T/C: 98 % of control
[9]
  T/C: 93 % of control
[10]
  T/C: 90 % of control

## CCS(=O)(=O)/C=C/c1ccncc1
dose: 25.0 mg/kg/injection, schedule: Q04DX002 (ip), vehicle: saline
  T/C: 104 % of control
dose: 50.0 mg/kg/injection, schedule: Q04DX002 (ip), vehicle: saline
  T/C: 101 % of control
[11]
  T/C: 111 % of control and 113 % of control

## CCNC(=O)NC(=O)CN1CCOCC1
dose: 100.0 mg/kg/injection, schedule: Q04DX003 (ip), vehicle: saline sonified
  T/C: 100 % of control
dose: 200.0 mg/kg/injection, schedule: Q04DX003 (ip), vehicle: saline sonified
  T/C: 102 % of control
dose: 400.0 mg/kg/injection, schedule: Q04DX003 (ip), vehicle: saline sonified
  T/C: 100 % of control

## CCCCCCCCC(=O)Nc1nc2c(ncn2C2OC(COC(C)=O)C(OC(C)=O)C2OC(C)=O)c(=O)[nH]1 (configuration not stated)
[4]
  T/C: 92 % of control and 97 % of control
[5]
  T/C: 111 % of control and 97 % of control

## Nc1nc2ccc([N+](=O)[O-])cc2s1
dose: 50.0 mg/kg/injection, schedule: Q01DX009 (ip), vehicle: Klucel (hydroxypropylcellulose) (HPC)
  T/C: 105 % of control
dose: 100.0 mg/kg/injection, schedule: Q01DX009 (ip), vehicle: Klucel (hydroxypropylcellulose) (HPC)
  T/C: 104 % of control
[1]
  T/C: 97 % of control
[2]
  T/C: 101 % of control
[3]
  T/C: 86 % of control

## CCCCc1ccc2nc3cc4ccccc4cc3nc2c1
dose: 50.0 mg/kg/injection, schedule: Q01DX001 (ip), vehicle: saline
  T/C: 95 % of control
[8]
  T/C: 98 % of control
[9]
  T/C: 93 % of control
[10]
  T/C: 110 % of control

## O=C1C(N2CC2)=C(N2CCCC(O)C2)C(=O)C(N2CC2)=C1N1CCCC(O)C1 (configuration not stated)
dose: 0.12 mg/kg/injection, schedule: Q04DX003 (ip), vehicle: saline
  T/C: 103 % of control
dose: 0.25 mg/kg/injection, schedule: Q04DX003 (ip), vehicle: saline
  T/C: 111 % of control
dose: 0.37 mg/kg/injection, schedule: Q01DX001 (ip), vehicle: saline
  T/C: 98 % of control
dose: 0.37 mg/kg/injection, schedule: Q01DX009 (ip), vehicle: saline
  T/C: 102 % of control and 103 % of control
dose: 0.5 mg/kg/injection, schedule: Q04DX003 (ip), vehicle: saline
  T/C: 123 % of control
dose: 0.75 mg/kg/injection, schedule: Q01DX001 (ip), vehicle: saline
  T/C: 108 % of control
dose: 0.75 mg/kg/injection, schedule: Q01DX009 (ip), vehicle: saline
  T/C: 96 % of control
dose: 1.5 mg/kg/injection, schedule: Q01DX001 (ip), vehicle: saline
  T/C: 105 % of control
dose: 1.5 mg/kg/injection, schedule: Q01DX009 (ip), vehicle: saline
  T/C: 124 % of control
dose: 2.0 mg/kg/injection, schedule: Q04DX003 (ip), vehicle: saline
  T/C: 168 % of control
dose: 3.0 mg/kg/injection, schedule: Q01DX001 (ip), vehicle: saline
  T/C: 102 % of control
dose: 3.0 mg/kg/injection, schedule: Q01DX009 (ip), vehicle: saline
  T/C: 159 % of control
dose: 4.0 mg/kg/injection, schedule: Q04DX003 (ip), vehicle: saline
  T/C: 156 % of control and 184 % of control
dose: 6.0 mg/kg/injection, schedule: Q04DX003 (ip), vehicle: saline
  T/C: 204 % of control

## CN(C)C(C#N)C(=O)c1ccccc1 (configuration not stated)
[8]
  T/C: 97 % of control and 98 % of control
[10]
  T/C: 93 % of control

## Cc1cc(C)[n+]2ccccc2n1
dose: 75.0 mg/kg/injection, schedule: Q01DX001 (ip), vehicle: saline
  T/C: 102 % of control
dose: 150.0 mg/kg/injection, schedule: Q01DX001 (ip), vehicle: saline
  T/C: 98 % of control

## Cc1cn(C2CCCCO2)c(=O)nc1NO (configuration not stated)
[12]
  T/C: 95 % of control
[13]
  T/C: 90 % of control
[14]
  T/C: 108 % of control

## O=C(O)c1ccc(/C=N/NC(=O)C(O)(c2ccccc2)c2ccccc2)cc1
[12]
  T/C: 108 % of control
[13]
  T/C: 108 % of control
[14]
  T/C: 108 % of control

## CC(C)(C)N1CCC1C(=O)NN (configuration not stated)
dose: 50.0 mg/kg/injection, schedule: Q01DX009 (ip), vehicle: saline
  T/C: 96 % of control
dose: 100.0 mg/kg/injection, schedule: Q01DX009 (ip), vehicle: saline
  T/C: 93 % of control
dose: 200.0 mg/kg/injection, schedule: Q01DX009 (ip), vehicle: saline
  T/C: 93 % of control

## NC(=S)N/N=C/c1cc2c(cc1Br)OCO2
dose: 50.0 mg/kg/injection, schedule: Q01DX001 (ip), vehicle: alcohol
  T/C: 93 % of control
dose: 100.0 mg/kg/injection, schedule: Q01DX001 (ip), vehicle: alcohol
  T/C: 122 % of control
dose: 200.0 mg/kg/injection, schedule: Q01DX001 (ip), vehicle: alcohol
  T/C: 112 % of control
dose: 400.0 mg/kg/injection, schedule: Q01DX001 (ip), vehicle: alcohol
  T/C: 104 % of control

## Clc1ccc(C#[C][Hg][C]#Cc2ccc(Cl)cc2)cc1
[15]
  T/C: 109 % of control
dose: 100.0 mg/kg/injection, schedule: Q01DX009 (ip), vehicle: saline with Tween-80
  T/C: 95 % of control
dose: 200.0 mg/kg/injection, schedule: Q01DX009 (ip), vehicle: saline with Tween-80
  T/C: 92 % of control

## CCC(=O)c1ccc(OC(=O)Nc2ccc(C)c(NC(=O)Oc3ccc(C(=O)CC)cc3)c2)cc1
dose: 100.0 mg/kg/injection, schedule: Q01DX009 (ip), vehicle: other
  T/C: 107 % of control
dose: 200.0 mg/kg/injection, schedule: Q01DX009 (ip), vehicle: other
  T/C: 100 % of control

## CC12CC3CC(C)(C1)CC(SCCN)(C3)C2
[11]
  T/C: 97 % of control
dose: 200.0 mg/kg/injection, schedule: Q04DX002 (ip), vehicle: saline
  T/C: 97 % of control

## COc1cccc(-n2cccc2)c1
dose: 100.0 mg/kg/injection, schedule: Q01DX001 (ip), vehicle: other
  T/C: 103 % of control
dose: 200.0 mg/kg/injection, schedule: Q01DX001 (ip), vehicle: other
  T/C: 105 % of control
dose: 400.0 mg/kg/injection, schedule: Q01DX001 (ip), vehicle: other
  T/C: 108 % of control

## c1cc2c(c(NC3=NCCN3)c1)CCCC2
dose: 12.5 mg/kg/injection, schedule: Q01DX009 (ip), vehicle: saline with Tween-80
  T/C: 98 % of control
dose: 25.0 mg/kg/injection, schedule: Q01DX009 (ip), vehicle: saline with Tween-80
  T/C: 93 % of control
[15]
  T/C: 95 % of control

## COC1CC=CC2=C1CCC1C2CC2C(=O)C1(C)CCC2O (configuration not stated)
[1]
  T/C: 94 % of control
[2]
  T/C: 100 % of control
[3]
  T/C: 97 % of control

## C=CCSc1ccc(Cl)cc1
[8]
  T/C: 105 % of control
[9]
  T/C: 103 % of control
